Laboratory results: paper PMC12505254, “PROTAC Enabling Formulation In Vivo: Implications of the Polymeric Carrier Eudragit E PO” (Molecular Pharmaceutics, 2025)
Values after ≈ are worked out from the molar mass of the structure shown. Read-outs that look alike come from different tables or passages of the source.

How the values were obtained:
[1] = Solubility of MS4078 in buffer and cFaSSIF types (24 h, 37°C); format: physicochemical; conditions: thermodynamic from solid
Procedure: The solubility of MS4078 was evaluated by weighing an excess amount of the compound into vials and adding a prewarmed buffer or cFaSSIF types (cFaSSIF1x , cFaSSIF5 x , and cFaSSIF10x ). The suspension was stirred at 37°C for 24 h at 300 rpm. Samples were withdrawn from the suspension, and centrifuged at 15000 rpm (Mikro 200 R, Hettich, Tuttlingen, Germany) and the supernatant was diluted 1:1 with ACN. The dissolved concentration was determined by ultraperformance liquid chromatography (UHPLC, see Section ). The experiments were carried out in triplicate.
UHPLC analysis of MS4078 is described in detail in a previous publication of our group. In brief, the samples were analyzed at 271 nm using a Waters Acquity H-Class series UHPLC system (Waters Corporation, Eschborn, Germany). A gradient was applied using ACN and water with 0.1% (V/V) trifluoracetic acid as mobile phases. Separation was realized by a Waters Acquity BEH C8 column (2.1 × 50 mm, 1.7 μm).

[2] = Pharmacokinetic study in mice (K–V i.v./p.o., SDD-V p.o.); format: in vivo, mice (female CD-1); conditions: 0.5 mg/kg in K–V
Procedure: To evaluate the in vivo performance of the MS4078 SDD formulation, pharmacokinetic studies in mice were conducted and compared to the corresponding Kolliphor solution vehicle. The API in Kolliphor vehicle (see Section ) and the SDD formulation were given in a single-dose study to female CD-1 mice (Charles River Laboratories, Sulzfeld, Germany). The animals were kept in group housing in conventional cages with elevated grids. Food and water were offered ad libitum to the animals.
The study was carried out at EMD Serono (Billerica, MA, USA). A total of 21 mice (female, CD-1) were divided into groups of 12 and 9 animals. The solution vehicle was prepared according to Section . Doses of 0.5 mg/kg of MS4078 were administered intravenously (dose volume: 5 mL/kg) to 12 animals and blood samples (retro-orbital) were sequentially drawn from 3 animals per sampling point at 0.1, 0.25, 0.5, 1, 2, 6, and 24 h after dosing. 10 mg/kg were administered orally (dose volume: 10 mL/kg) to the second group of 9 animals. After dosing, blood samples from 3 animals per sampling point were sequentially drawn at the time points described above, except for the 0.1 h sampling point. The blood cells were dissevered by centrifugation (2000 g, 5 min). Plasma samples were extracted using a protein precipitation reagent (ACN, 4:1 (V/V)). After the addition of 50 μL methanol, the concentration was determined by LC-MS/MS (generic method, based on tuning data).
Mouse PK studies of the enabling formulation were conducted at Nuvisan GmbH (Grafing, Germany). To determine oral bioavailability of MS4078/SDD, the SDD formulation (dose: 10 mg/kg MS4078) was weighed in, dispersed in a citrate vehicle (see Section ), and administered orally (gavage, dose volume: 10 mL/kg) to three female mice (Crl:CD1(ICR)). […] 50 μL of supernatant were diluted 1:1 with a solution of 0.1% formic acid in water and the concentration of MS4078 was determined by UHPLC-MS/MS (generic method, based on tuning data).
Plasma concentrations were determined for each time point sampled. […]

[3] = Two-stage precipitation assay simulating the conditions in mice; format: physicochemical
Procedure: To determine the dissolution and precipitation of both the Kolliphor solution vehicle and the SDD dispersion in citrate vehicle upon the GI passage in vitro, a two-stage precipitation assay was conducted which had been developed internally. Therefore, the Kolliphor vehicle containing MS4078 and the dispersion of the SDD in citrate vehicle were prepared according to the descriptions in Sections and , respectively.
According to McConnell et al., the volume of gastric fluid in mice is about 175 μL. […]
The setup of the two-stage precipitation experiments and an overview of the samples are depicted in Figure and Table . […] The concentration of MS4078 was determined by sampling and UHPLC analysis or the turbidity of the samples was analyzed in-line using the Cary3500 (Agilent, Santa Clara, CA, USA) (Figure D). […] As a first step, the optical density (OD) of the cFaSSIF types, Blank-DM (citrate vehicle/SGF pH 4 mixture without polymer or API) and P-DM (a solution of E PO in citrate vehicle/SGF pH 4 mixture) were measured in a range of 200–800 nm (Figure S2). […]
1 Schematic setup of the two-stage precipitation experiments. […] All samples were centrifuged (15,000 rpm (Mikro 200 R)) for 60 s, and the supernatant was diluted with ACN and analyzed via UHPLC (see Section ). […]

- solubility at 24 h ([1]; aqueous buffer, citrate-phosphate buffer pH 5, 37°C, read-out: Solubility): ~2 µg/mL (≈ 2.19 µM)
- solubility at 24 h ([1]; fassgf or other biorelevant, cFaSSIF5x pH 5, 37°C, read-out: Solubility in 5x concentrated cFaSSIF): ~220 µg/mL (≈ 241 µM)
- solubility at 24 h ([1]; fassif, cFaSSIF1x pH 5, 37°C, read-out: Solubility S(cFaSSIF1x)): 78 µg/mL (≈ 85.3 µM)
- in vivo total clearance as % mouse liver blood flow [2]: 20 % mouse liver blood flow
- clearance ([2]; female, CD-1, mouse, plasma, iv, read-out: in vivo total clearance (converted)): 20.3 mL/min/kg
- Vd ([2]; female, CD-1, mouse, plasma, iv, read-out: volume of distribution (Vss)): 1.05 L/kg
- Dissolved MS4078 concentration in acceptor compartment maintained until end of experiment ([3]; SDD-DM transferred to cFaSSIF10x, from the 20 min sampling point): 30 µg/mL
- Dissolved MS4078 concentration in acceptor compartment after phase separation (plateau) ([3]; SDD-DM transferred to cFaSSIF20x): ~220 µg/mL
SMILES: Cc1cc(Nc2ncc(Cl)c(Nc3ccccc3S(=O)(=O)C(C)C)n2)c(OC(C)C)cc1C1CCN(CC(=O)NCCNc2cccc3c2C(=O)N(C2CCC(=O)NC2=O)C3=O)CC1 (centres unmarked) [MS4078]
